Reference: article PMC3914206

What was measured:
Type in all cases: binding
[1] = molecular target: T1, panel of 442 kinases (Homo sapiens, UniProt P30291); details: kinase WEE1; compound concentration 10 µM
T1 construct: purchased KINOMEscan
Excerpt: (§1) We assessed the selectivity of members of this scaffold using the KINOMEscan methodology across a near comprehensive panel of 442 kinases [[18,27]].

[2] = molecular target: T2, panel of 442 kinases (Homo sapiens, UniProt P33981); details: kinase TTK; compound concentration 10 µM
T2 construct: purchased KINOMEscan
T2 sequence (P33981 1-857): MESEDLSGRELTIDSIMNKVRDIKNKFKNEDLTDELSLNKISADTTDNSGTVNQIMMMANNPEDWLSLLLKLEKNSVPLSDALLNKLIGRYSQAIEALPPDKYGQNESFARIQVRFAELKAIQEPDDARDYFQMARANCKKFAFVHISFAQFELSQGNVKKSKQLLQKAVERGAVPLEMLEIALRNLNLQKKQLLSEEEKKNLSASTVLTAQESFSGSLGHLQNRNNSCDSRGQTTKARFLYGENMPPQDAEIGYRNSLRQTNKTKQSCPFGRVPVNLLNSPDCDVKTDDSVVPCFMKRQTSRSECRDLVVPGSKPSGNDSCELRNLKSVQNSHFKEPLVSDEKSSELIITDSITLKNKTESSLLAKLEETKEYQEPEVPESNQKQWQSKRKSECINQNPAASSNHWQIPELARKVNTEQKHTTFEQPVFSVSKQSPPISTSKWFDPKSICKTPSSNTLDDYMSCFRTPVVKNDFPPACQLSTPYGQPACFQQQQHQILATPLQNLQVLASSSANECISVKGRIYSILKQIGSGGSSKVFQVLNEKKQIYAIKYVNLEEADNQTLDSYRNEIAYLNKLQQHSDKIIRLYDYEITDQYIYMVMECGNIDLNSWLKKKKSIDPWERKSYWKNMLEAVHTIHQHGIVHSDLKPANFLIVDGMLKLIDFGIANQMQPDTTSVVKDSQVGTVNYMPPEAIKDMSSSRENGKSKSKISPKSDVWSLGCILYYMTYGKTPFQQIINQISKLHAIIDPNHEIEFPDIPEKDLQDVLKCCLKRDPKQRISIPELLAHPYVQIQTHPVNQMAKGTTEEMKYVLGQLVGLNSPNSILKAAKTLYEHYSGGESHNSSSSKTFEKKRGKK
Excerpt: as §1

[3] = molecular target: T3, panel of 442 kinases (Homo sapiens, UniProt P36507); details: Compound Concentration 10 µM
T3 construct: purchased KINOMEscan
T3 sequence (P36507 whole entry): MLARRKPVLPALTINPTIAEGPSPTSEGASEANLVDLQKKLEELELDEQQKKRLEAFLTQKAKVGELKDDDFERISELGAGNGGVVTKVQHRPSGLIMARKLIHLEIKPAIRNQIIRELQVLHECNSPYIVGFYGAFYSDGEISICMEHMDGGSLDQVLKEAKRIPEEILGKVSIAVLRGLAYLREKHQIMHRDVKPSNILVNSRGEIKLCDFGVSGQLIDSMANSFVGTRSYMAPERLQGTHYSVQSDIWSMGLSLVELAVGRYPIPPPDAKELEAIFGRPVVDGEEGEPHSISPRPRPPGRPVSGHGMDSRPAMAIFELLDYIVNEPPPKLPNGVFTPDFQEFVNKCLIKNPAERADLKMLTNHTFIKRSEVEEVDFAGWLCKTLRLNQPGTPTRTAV
Excerpt: as §1

T1 sequence (P30291 whole entry): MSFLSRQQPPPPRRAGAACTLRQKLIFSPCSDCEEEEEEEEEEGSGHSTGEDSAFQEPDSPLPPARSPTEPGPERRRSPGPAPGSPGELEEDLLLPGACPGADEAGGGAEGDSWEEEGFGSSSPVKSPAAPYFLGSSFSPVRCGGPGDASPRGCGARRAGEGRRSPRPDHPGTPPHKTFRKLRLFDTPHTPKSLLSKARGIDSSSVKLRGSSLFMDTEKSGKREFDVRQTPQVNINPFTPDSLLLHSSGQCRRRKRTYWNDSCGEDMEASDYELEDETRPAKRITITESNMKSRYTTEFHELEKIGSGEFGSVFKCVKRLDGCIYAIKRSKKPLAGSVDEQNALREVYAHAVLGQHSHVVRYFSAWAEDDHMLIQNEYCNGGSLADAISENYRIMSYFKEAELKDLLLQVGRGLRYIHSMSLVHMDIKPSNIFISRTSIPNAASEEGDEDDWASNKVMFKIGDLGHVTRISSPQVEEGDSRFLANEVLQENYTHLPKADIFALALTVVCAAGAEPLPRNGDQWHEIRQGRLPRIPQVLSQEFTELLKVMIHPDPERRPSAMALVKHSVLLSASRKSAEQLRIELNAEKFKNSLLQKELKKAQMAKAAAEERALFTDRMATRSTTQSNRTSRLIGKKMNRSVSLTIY

COc1cc(C(=O)N2CCC(N3CCN(C)CC3)CC2)ccc1Nc1ncc2c(n1)N1CCc3cccc(c31)C(=O)N2C [Compound 24]
% Ctrl, WEE1 [1]: 82 % Ctrl | % Ctrl, TTK [2]: 46 % Ctrl

CCOc1cc(C(=O)N2CCC(N3CCN(C)CC3)CC2)ccc1Nc1ncc2c(n1)N(C1CCCC1)c1ccccc1C(=O)N2C [Compound 26]
KINOMEscan: MEK2 [3]: 89 | % Ctrl, WEE1 [1]: 100 % Ctrl | % Ctrl, TTK [2]: 49 % Ctrl

COc1cc(C(=O)N2CCC(N3CCN(C)CC3)CC2)ccc1Nc1ncc2c(n1)N(C1CCCC1)c1ccccc1C(=O)N2C [Compound 25, 11-cyclopentyl-2-((2-methoxy-4-(4-(4-methylpiperazin-1-yl)piperidine-1-carbonyl)phenyl)amino)-5-methyl-5H-benzo[e]pyrimido[5,4-b][1,4]diazepin-6(11H)-one]
KINOMEscan: MEK2 [3]: 66 | % Ctrl, WEE1 [1]: 98 % Ctrl | % Ctrl, TTK [2]: 94 % Ctrl

COc1cc(C(=O)N2CCC(N3CCN(C)CC3)CC2)ccc1Nc1ncc2c(n1)N(C)c1ccccc1C(=O)N2C [15 (LRRK2-IN-1)]
KINOMEscan: MEK2 [3]: 99 | % Ctrl, WEE1 [1]: 100 % Ctrl | % Ctrl, TTK [2]: 28 % Ctrl
